In US12559455B2, “Compound as a UBR box domain ligand” (AUTOTAC INC., priority 2020, dated 2026):
Peptide text beside a SMILES is read from it. * marks the point of attachment. Cbz = O=C(OCc1ccccc1)*

What was measured:
UBR1 [1] = assay: Inhibition of R-nsP4 degradation by in vitro transcription/translation method; assay type: biochemical; conditions: compound 1 uM, 30° C. for 40 minutes, DHFR-Ub-R-nsP4 plasmid, immunoblotting
Procedure: A TnT® Quick Coupled Transcription/Translation System kit was used to confirm the R-nsP4 expression of the compounds. After a pre-mix was made using Transcend Biotin-Lysyl-tRNA, methionine, bestatin, a TnTquick Master mix and a DHFR-Ub-R-nsP4 plasmid, the pre-mix was mixed with a compound (1 uM). After each sample was reacted at 30° C. for 40 minutes, a 5×SDS loading dye was added thereto. After the resulting mixture was reacted at 95° C. for 2 minutes, 5 uL was taken and aliquoted into each well of an acrylamide gel, and then an immunoblotting method was performed, and the experimental results are illustrated in [FIG. 2]. For an in vitro transcription/translation method, a representative experiment was schematized from three or more independent experiments.
Referring to FIG. 2, it can be confirmed that the level of R-nsP4 is increased by Compound 2, Compound 3, Compound 7, Compound 12, Compound 14, and Compound 16 compared to the control. That is, it could be confirmed that in the case of treatment with the compound according to the present invention, the R-nsP4 level was increased by binding to UBR1.

UBR1 [2] = target: T1, UBR1 (Rattus norvegicus, UniProt A0A8I5ZK69); assay: Inhibition of intracellular RGS4 degradation by transfection (immunoblotting); assay type: cell-based; conditions: L6 cell line transfected with RGS4 plasmid, compound 5 uM, 24 hours
T1 construct: endogenous in cells; host or cells: L6 rat muscle-derived cells
Procedure: A L6 cell line, which is a rat muscle-derived cell, was cultured using a DMEM medium containing 10% FBS and 1% streptomycin/penicillin in an incubator in which 5% carbon dioxide was maintained. In order to measure the UBR1 binding strength according to the treatment with a representative compound selected from the present compounds, cells were aliquoted into a 6-well plate. The cells were additionally cultured for 24 hours so as to be completely attached to the surface of the plate. Opti-MEM, Lipofectamine, and an RGS4plasmid was reacted for transfection. After the reaction was completed, the cells are treated such that DNA was expressed intracellularly. […] To extract proteins from the collected cells, 50 uL of a lysis buffer (20 mM Tris, pH 7.4, 150 mM NaCl, 1% Triton-X-100, 2 mM NaF, 2 mM EDTA, 2 mM b-glycerophosphate, 5 mM sodium orthovanadate, 1 mM PMSF, leupeptin, aprotenin) was injected into each sample, and the cells were lysed. A sample buffer was added to each sample based on the measured total protein concentration, and the mixture was reacted at 100° C. for 5 minutes. After 5 uL was taken from the completely reacted sample and aliquoted into each well of an acrylamide gel, an immunoblotting method was performed, and the experimental results are illustrated in [FIG. 3]. […]

UBR1 [3] = target: T1, UBR1; assay: Inhibition of muscle cell actin degradation by immunoblotting; assay type: cell-based; conditions: L6 cell line, compound 5 uM, 24 hours
Procedure: To evaluate the actin degradation of compounds in muscle cells, a L6 cell line, which is a rat muscle-derived cell, was cultured using a DMEM medium containing 10% FBS and 1% streptomycin/penicillin in an incubator in which 5% carbon dioxide was maintained. In order to measure the UBR1 binding strength according to the treatment with a representative compound selected from the present compounds, cells were aliquoted into a 12-well plate. The cells were additionally cultured for 24 hours so as to be completely attached to the surface of the plate. […] To extract proteins from the collected cells, 50 uL of a lysis buffer (20 mM Tris, pH 7.4, 150 mM NaCl, 1% Triton-X-100, 2 mM NaF, 2 mM EDTA, 2 mM b-glycerophosphate, 5 mM sodium orthovanadate, 1 mM PMSF, leupeptin, aprotenin) was injected into each sample, and the cells were lysed. A sample buffer was added to each sample based on the measured total protein concentration, and the mixture was reacted at 100° C. for 5 minutes. After 5 uL was taken from the completely reacted sample and aliquoted into each well of an acrylamide gel, an immunoblotting method was performed, and the experimental results were illustrated in [FIG. 4], [FIG. 5], [FIG. 6], [FIG. 7], [FIG. 8], and [FIG. 9]. For the immunoblotting method, a representative experiment was schematized from three or more independent experiments.

UBR1 [4] = target: T1, UBR1; assay: UBR box domain binding strength by immunoprecipitation analysis, UBR1; assay type: cell-based; conditions: L6 cell line, 24 hours, immunoprecipitation and immunoblotting
Procedure: (§1) To evaluate the binding strength of the compounds to UBR1, UBR2, UBR3 and UBR5 through the UBR box domain, a L6 cell line, which is a rat muscle-derived cell, was cultured using a DMEM medium containing 10% FBS and 1% streptomycin/penicillin in an incubator in which 5% carbon dioxide was maintained. In order to measure the UBR1 binding strength according to the treatment with a representative compound selected from the present compounds, cells were aliquoted into a 100 pi dish. The cells were additionally cultured for 24 hours so as to be completely attached to the surface of the plate. […] To extract proteins from the collected cells, 50 uL of a lysis buffer (20 mM Tris, pH 7.4, 150 mM NaCl, 1% Triton-X-100, 2 mM NaF, 2 mM EDTA, 2 mM b-glycerophosphate, 5 mM sodium orthovanadate, 1 mM PMSF, leupeptin, aprotenin) was injected into each sample, and the cells were lysed. Each sample was reacted with a UBR1 antibody for 16 hours based on the measured total protein concentration, and then reacted with Protein A/G beads for 3 hours. A sample buffer was added to the completely reacted sample and the resulting mixture was reacted at 100° C. for 5 minutes. After 20 uL was taken from the completely reacted sample and aliquoted into each well of an acrylamide gel, an immunoblotting method was performed, and the experimental results are illustrated in [FIG. 10] and [FIG. 11]. […]

UBR2 = target: T2, UBR2 (Rattus norvegicus, UniProt A0A8I5YBG5); assay: UBR box domain binding strength by immunoprecipitation analysis, UBR2; assay type: cell-based; conditions: L6 cell line, compound 5 uM, 24 hours, immunoprecipitation and immunoblotting
T2 construct: endogenous in cells; host or cells: L6 rat muscle-derived cells
Procedure: as §1

UBR3 = target: T3, UBR3 (Rattus norvegicus, UniProt D4A7F0); assay: UBR box domain binding strength by immunoprecipitation analysis, UBR3; assay type: cell-based; conditions: L6 cell line, compound 5 uM, 24 hours, immunoprecipitation and immunoblotting
T3 construct: endogenous in cells; host or cells: L6 rat muscle-derived cells
Procedure: as §1

UBR5 = target: T4, UBR5 (Rattus norvegicus, UniProt Q62671); assay: UBR box domain binding strength by immunoprecipitation analysis, UBR5; assay type: cell-based; conditions: L6 cell line, compound 5 uM, 24 hours, immunoprecipitation and immunoblotting
T4 construct: endogenous in cells; host or cells: L6 rat muscle-derived cells
Procedure: as §1

UBR box of Human UBR1 = target: T5, UBR box of Human UBR1 (Homo sapiens, UniProt Q8IWV7); assay: UBR box domain binding by microscale thermophoresis (MST); conditions: RED-NHS labeled UBR1 UBR box protein (Gln97-Pro168), FIGS. 12 to 19
T5 construct: A Gln97-Pro168 portion corresponding to the UBR box of Human UBR1; made in house; host or cells: E. coli
Procedure: A Gln97-Pro168 portion corresponding to the UBR box of Human UBR1 (UniProt ID: Q81WV7) was cloned into a modified expression vector, and then expressed in E. coli. After affinity chromatography was used, a tag was removed by a protease, and then Gly-His-Met was added to the N-terminal. After ion chromatography was performed, a final UBR box protein of a UBR1 was purified using gel filtration chromatography in a buffer composition of 10 mM NaCl, 20 mM Tris-HCl, 2 mM beta-mercaptoethanol, and pH 7.5.
A dye of the Monolith protein labeling kit RED-NHS 2nd generation (Cat #MO-L011) has an NHS-ester group that forms a covalent bond with primary amines (lysine residues). This dye is optimized for a Monolith-series device equipped with a RED detector. A purified UBR1 UBR box protein was labeled according to the presented protocol using this kit.
Thermophoresis refers to a phenomenon in which particles move due to a temperature gradient. Particles present in a high temperature region have greater kinetic energy than particles present in a low temperature region, and more frequently collide with surrounding particles with greater energy. As a result, particles move from the high temperature region to the low temperature region.
Thermophoresis of proteins is typically different from that of protein-ligand complexes. This is because the binding of the ligand changes its size, electric charge, and solvation energy. […] Therefore, the binding of the UBR1 UBR box protein and the ligand compound was measured using MST, and it was confirmed that the presented ligand binds to the UBR1 UBR box (see FIGS. 12 to 19).

L6 cell line = assay: Confirmation of whether muscle actin is Arg/N-degron pathway substrate (immunoblotting); assay type: cell-based, rat; conditions: MG132 10 uM, 24 hours
Procedure: A L6 cell line, which is a rat muscle-derived cell, was cultured using a DMEM medium containing 10% FBS and 1% streptomycin/penicillin in an incubator in which 5% carbon dioxide was maintained, and cells were aliquoted into a 12-well plate after the culture. The cells were additionally cultured for 24 hours so as to be completely attached to the surface of the plate. To confirm whether MG132 increased UBR1 binding, cells were collected after treatment with MG132 (10 uM) alone for 24 hours. To extract proteins from the collected cells, 50 uL of a lysis buffer (20 mM Tris, pH 7.4, 150 mM NaCl, 1% Triton-X-100, 2 mM NaF, 2 mM EDTA, 2 mM b-glycerophosphate, 5 mM sodium orthovanadate, 1 mM PMSF, leupeptin, aprotenin) was injected into each sample, and the cells were lysed. A sample buffer was added to each sample based on the measured total protein concentration, and the mixture was reacted at 100° C. for 5 minutes. After 5 uL was taken from the completely reacted sample and aliquoted into each well of an acrylamide gel, an immunoblotting method was performed, and the experimental results are illustrated in [FIG. 1]. For the immunoblotting method, a representative experiment was schematized from three or more independent experiments.

T5 sequence (Q8IWV7 97-168): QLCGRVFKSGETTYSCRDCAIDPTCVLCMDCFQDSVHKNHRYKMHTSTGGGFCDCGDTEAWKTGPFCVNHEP
T1 sequence (A0A8I5ZK69 1-1749): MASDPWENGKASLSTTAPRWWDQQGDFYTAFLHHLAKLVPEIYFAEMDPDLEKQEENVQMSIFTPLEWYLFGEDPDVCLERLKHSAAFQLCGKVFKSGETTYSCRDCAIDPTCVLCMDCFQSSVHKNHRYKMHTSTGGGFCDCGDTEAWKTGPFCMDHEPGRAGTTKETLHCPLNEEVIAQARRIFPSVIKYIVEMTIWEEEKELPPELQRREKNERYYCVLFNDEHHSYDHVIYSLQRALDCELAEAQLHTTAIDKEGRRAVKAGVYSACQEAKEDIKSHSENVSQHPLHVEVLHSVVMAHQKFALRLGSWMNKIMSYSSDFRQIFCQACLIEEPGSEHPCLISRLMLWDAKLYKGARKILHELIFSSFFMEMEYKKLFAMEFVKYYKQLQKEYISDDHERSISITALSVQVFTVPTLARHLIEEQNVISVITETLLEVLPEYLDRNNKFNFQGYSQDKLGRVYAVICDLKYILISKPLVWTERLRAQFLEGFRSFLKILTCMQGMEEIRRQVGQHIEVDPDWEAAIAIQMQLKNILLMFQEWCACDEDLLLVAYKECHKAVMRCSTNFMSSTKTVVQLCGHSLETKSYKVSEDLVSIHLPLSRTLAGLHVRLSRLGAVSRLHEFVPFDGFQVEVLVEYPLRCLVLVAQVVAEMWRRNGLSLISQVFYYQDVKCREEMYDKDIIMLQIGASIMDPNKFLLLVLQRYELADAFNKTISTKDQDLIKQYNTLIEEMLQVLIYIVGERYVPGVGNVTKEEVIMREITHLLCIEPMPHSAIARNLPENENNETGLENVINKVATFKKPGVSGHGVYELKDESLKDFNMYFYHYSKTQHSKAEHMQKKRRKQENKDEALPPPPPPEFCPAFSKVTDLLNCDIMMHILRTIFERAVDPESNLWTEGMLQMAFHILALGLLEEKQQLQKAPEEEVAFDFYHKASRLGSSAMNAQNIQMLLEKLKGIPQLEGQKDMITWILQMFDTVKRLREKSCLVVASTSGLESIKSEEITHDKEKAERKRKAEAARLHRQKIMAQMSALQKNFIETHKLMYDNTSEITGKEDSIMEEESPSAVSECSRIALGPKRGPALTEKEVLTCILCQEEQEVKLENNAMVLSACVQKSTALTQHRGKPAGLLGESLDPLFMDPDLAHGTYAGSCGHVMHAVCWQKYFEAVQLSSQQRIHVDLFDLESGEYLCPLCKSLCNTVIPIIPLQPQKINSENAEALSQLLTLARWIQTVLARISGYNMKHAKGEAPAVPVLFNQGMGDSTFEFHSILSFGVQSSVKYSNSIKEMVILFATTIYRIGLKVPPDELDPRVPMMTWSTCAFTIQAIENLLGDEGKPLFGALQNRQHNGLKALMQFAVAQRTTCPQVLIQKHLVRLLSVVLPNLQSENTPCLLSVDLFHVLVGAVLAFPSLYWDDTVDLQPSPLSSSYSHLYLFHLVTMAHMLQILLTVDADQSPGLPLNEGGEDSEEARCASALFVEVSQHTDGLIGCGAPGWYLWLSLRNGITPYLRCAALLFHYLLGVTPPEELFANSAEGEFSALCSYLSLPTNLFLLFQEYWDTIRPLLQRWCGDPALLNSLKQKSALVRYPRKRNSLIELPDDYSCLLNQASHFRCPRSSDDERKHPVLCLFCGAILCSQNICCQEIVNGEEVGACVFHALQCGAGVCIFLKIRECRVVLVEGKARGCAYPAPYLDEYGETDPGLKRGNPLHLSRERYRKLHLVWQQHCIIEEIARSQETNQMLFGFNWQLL
T2 sequence (A0A8I5YBG5 1-1755): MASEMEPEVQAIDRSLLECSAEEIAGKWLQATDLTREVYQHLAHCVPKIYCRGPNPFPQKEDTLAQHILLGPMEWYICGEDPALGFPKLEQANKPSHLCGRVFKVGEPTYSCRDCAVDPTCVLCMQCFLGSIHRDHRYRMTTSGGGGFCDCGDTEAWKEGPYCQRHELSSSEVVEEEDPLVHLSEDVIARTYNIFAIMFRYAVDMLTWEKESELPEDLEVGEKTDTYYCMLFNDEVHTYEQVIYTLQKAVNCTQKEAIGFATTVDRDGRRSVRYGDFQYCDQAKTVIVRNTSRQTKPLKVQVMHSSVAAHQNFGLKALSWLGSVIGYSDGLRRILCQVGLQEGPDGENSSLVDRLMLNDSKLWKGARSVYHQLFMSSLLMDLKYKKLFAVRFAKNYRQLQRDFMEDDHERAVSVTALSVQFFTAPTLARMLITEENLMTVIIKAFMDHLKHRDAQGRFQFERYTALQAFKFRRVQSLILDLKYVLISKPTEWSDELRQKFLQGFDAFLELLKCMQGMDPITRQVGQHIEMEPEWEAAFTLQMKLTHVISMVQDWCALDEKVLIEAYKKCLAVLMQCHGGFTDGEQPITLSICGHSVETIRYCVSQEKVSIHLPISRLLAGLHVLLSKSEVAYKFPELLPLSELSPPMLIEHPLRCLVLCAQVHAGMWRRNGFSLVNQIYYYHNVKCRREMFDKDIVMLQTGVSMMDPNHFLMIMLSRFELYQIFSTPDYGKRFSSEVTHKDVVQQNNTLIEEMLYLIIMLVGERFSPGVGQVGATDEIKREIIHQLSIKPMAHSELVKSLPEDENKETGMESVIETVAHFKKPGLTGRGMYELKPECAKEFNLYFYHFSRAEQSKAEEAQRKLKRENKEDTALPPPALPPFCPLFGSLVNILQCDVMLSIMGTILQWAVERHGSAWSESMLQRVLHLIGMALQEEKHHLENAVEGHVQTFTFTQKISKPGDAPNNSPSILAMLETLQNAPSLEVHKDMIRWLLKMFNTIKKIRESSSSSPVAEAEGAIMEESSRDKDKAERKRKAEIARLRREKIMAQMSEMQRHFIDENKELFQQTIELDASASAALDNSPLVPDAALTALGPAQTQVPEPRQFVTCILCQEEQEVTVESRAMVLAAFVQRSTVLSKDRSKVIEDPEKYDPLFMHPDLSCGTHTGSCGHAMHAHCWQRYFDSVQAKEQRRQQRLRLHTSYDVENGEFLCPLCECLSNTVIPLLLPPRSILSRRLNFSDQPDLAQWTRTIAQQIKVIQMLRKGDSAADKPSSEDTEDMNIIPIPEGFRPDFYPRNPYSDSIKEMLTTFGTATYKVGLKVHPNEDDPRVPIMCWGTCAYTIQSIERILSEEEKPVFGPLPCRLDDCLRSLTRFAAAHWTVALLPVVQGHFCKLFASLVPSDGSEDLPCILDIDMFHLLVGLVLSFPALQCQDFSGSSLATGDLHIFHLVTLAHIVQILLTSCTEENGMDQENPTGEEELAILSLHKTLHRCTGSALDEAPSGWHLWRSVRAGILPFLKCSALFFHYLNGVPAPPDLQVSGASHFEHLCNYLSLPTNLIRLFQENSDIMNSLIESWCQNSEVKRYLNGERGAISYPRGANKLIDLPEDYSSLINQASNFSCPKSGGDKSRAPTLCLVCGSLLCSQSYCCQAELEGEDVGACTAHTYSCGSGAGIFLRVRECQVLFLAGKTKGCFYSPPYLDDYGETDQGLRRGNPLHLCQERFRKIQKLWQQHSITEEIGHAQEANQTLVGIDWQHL

| SMILES | level of R-nsP4 compared to the control (UBR1 [1]) | level of ACTA1 compared to the control (UBR1 [3]) | binding to UBR1 UBR box (MST) (UBR box of Human UBR1) | level of ACTG2 compared to the control (UBR1 [3]) | also measured |
| --- | --- | --- | --- | --- | --- |
| Nc1ccc(S(=O)(=O)NNC(=O)c2ccc(O)cc2)cc1 [Compound 2, 4-amino-N′-(4-hydroxybenzoyl)benzenesulfonohydrazide] | increased | further increased | binds | – | level of RGS4 compared to the control (UBR1 [2]): increased; binding strength of UBR1 and ACTA1 (UBR1 [4]; compound 5 uM): reduced; binding strength of UBR2 and ACTA1 (UBR2): reduced; binding strength of UBR3 and ACTA1 (UBR3): reduced; binding strength of UBR5 and ACTA1 (UBR5): reduced |
| Nc1ccc(S(=O)(=O)NNC(=O)c2ccc(O)cc2)cc1N1CCOCC1 [Compound 3, 4-amino-N′-(4-hydroxybenzoyl)-3-morpholinobenzenesulfonohydrazide] | increased | further increased | – | – | level of RGS4 compared to the control (UBR1 [2]): increased |
| Nc1ccc(S(=O)(=O)NNC(=O)c2cccc(-c3ccccc3)c2)cc1 [Compound 7, N′-([1,1′-biphenyl]-3-carbonyl)-4-aminobenzenesulfonohydrazide] | increased | further increased | – | – | – |
| CC(N)c1ccc(S(=O)(=O)NNC(=O)c2ccc(O)cc2)cc1 (stereo not shown) [Compound 9, 4-(1-aminoethyl)-N′-(4-hydroxybenzoyl)benzenesulfonohydrazide] | – | – | binds | – | level of ACTA2 compared to the control (UBR1 [3]): further increased |
| Nc1ccc(S(=O)(=O)NCC(=O)c2ccc(O)cc2)cc1 [Compound 12, 4-amino-N-(2-(4-hydroxyphenyl)-2-oxoethyl)benzenesulfonamide] | increased | – | binds | further increased | – |
| COc1ccc(S(=O)(=O)NNC(=O)c2ccc(O)cc2)cc1 [Compound 13, N′-(4-hydroxybenzoyl)-4-methoxybenzenesulfonohydrazide] | – | – | binds | further increased | – |
| N=C(N)c1ccc(S(=O)(=O)NNC(=O)c2ccc(O)cc2)cc1 [Compound 14, 4-((2-(4-hydroxybenzoyl)hydrazinyl)sulfonyl)benzimidamide] | increased | – | – | further increased | – |
| Nc1ccc(S(=O)(=O)CNC(=O)c2ccc(O)cc2)cc1 [Compound 16, N-(((4-aminophenyl)sulfonyl)methyl)-4-hydroxybenzamide] | increased | further increased | – | – | – |
| CC(C)C[C@@H](C=O)NC(=O)[C@H](CC(C)C)NC(=O)[C@H](CC(C)C)NC(=O)OCc1ccccc1 [MG132] (Cbz-Leu-Leu-Leu-aldehyde) | – | – | – | – | level of ACTA1 compared to a control (L6 cell line): increased; level of ACTC1 compared to a control (L6 cell line): increased; level of ACTG2 compared to a control (L6 cell line): increased; binding strength between UBR1 and a substrate ACTA1 (UBR1 [4]; MG132 10 uM as negative control): maintained |
